Experimental data as given in the NIST ThermoML archive (doi:10.1016/j.tca.2013.05.023).

Tests used:
[1] = xn = mol fraction of the nth substance listed; conditions: 101 kPa, Liquid, Alternating current cell with electrodes, x1 = 0.3333
[2] = molar heat capacity at constant pressure; xn = mol fraction of the nth substance listed; conditions: 101 kPa, Liquid, Small sample (50 mg) DSC, x1 = 0.3333

CCN(CC)CCO.Cl [2-(diethylamino)ethanol hydrochloride] + OCC(O)CO
Conditions	electrical conductivity, [1] [S/m]	molar heat capacity at constant pressure, [2] [J/K/mol]
298.15 K	0.069	–
303.15 K	0.098	83.46
308.15 K	0.134	83.96
313.15 K	0.175	84.39
318.15 K	0.228	85.16
323.15 K	0.293	85.72
328.15 K	0.368	86.36
333.15 K	0.456	86.96
338.15 K	0.556	87.79
343.15 K	0.667	88.46
348.15 K	–	89.09
353.15 K	–	89.76

CCN(CC)CCO.Cl [2-(diethylamino)ethanol hydrochloride] + OCCO
Conditions	electrical conductivity, [1] [S/m]	molar heat capacity at constant pressure, [2] [J/K/mol]
298.15 K	0.47	–
303.15 K	0.565	68.03
308.15 K	0.68	68.43
313.15 K	0.81	68.83
318.15 K	0.96	69.33
323.15 K	1.12	69.83
328.15 K	1.29	70.36
333.15 K	1.48	71.03
338.15 K	1.68	71.53
343.15 K	1.88	72.09
348.15 K	–	72.69
353.15 K	–	73.26
